Columns and labels:
[1] = test system: yeast strains JK9-3dα, MH272-1da and MH272-1da/α; test: Yeast growth on media containing the compound, compared with medium without compound; assay type: cell-based, Saccharomyces Cerevisie; conditions: for antifungal activity on Saccharomyces Cerevisie: general statement
Method: (§1) The compound, e.g. FTY720, is dissolved in distilled water to be 10 mM, the resulting stock solution is kept at 4° C. and diluted to the appropriated concentrations with medium used for yeast culture. Standard laboratory yeast strain in this case derivatives of JK9-3d (a, alpha and diploid) are plated on to media containing the varying concentrations of the compound to be tested and their growth are compared to that in medium without the compound. Cultivation and maintenance of cells are carried out in YEPD medium (Difco) or synthetic medium (SD). The growth of both yeast strains JK9-3dα, MH272-1da and MH272-1da/α is inhibited by a compound of formula I, e.g. FTY720, at 30 μM in the YPED solid medium at 30° C. or in minimal medium at 19° C.

[2] = test system: peripheral blood lymphocytes (PBL); conditions: background statement; cited from earlier work
Rsp5 mutant yeast = test: Sensitivity of Rsp5 mutant to FTY720; assay type: cell-based, Saccharomyces Cerevisie; conditions: 30 μM
Method: as §1, with “(SD).” for “(SD). The growth of both yeast strains JK9-3dα, MH272-1da and MH272-1da/α is inhibited by a compound of formula I, e.g. FTY720, at 30 μM in the YPED solid medium at 30° C. or in minimal medium at 19° C.”
In order to clarify the role of the ubiquitin pathway in FTY720 action, the sensitivity of Rsp5 (Bul1 binding ubiquitin ligase) mutant to FTY720 is tested. Rsp5 mutant, in which Rsp5 expression level is reduced to less than 10% of wild-type due to the Ty1 transposed insertion in the promoter, is used in this study, since the complete disruption of Rsp5 gene is lethal. This Rsp5 mutant is resistant to 30 μM of FTY720 like Bul1 disrupted-yeast.

JK9-3dα transformants = test: FTY720 resistance of JK9-3dα transformants carrying plasmid-borne genes; assay type: cell-based, Saccharomyces Cerevisie
From the text: If the growth sensitivity of these yeast strains is due to inhibition of specific functional protein targets in the cells, such inhibition could be relieved by overexpressing such a function through introduction of multiple genetic copies of such function. Accordingly the FTY720 sensitive strain JK9-3dα has been transformed with yeast genomic DNA libraries cloned in high copy plasmid (2 μm) URA3 selectable using Yeast Transformation System (Clontech). FTY720-resistant transformants are selected on synthetic medium lacking uracil in the presence of 30 μM of FTY720. The total number of URA3+transformants is >20,000. The first selection Is performed at 19° C. because even the parent yeast strain JK9-3dα is resistant to FTY720 in synthetic medium at 30° C. After the first selection for resistance, FTY720-resistant growth phenotype of transformants is reconfirmed by restreaking individual colonies on to medium with the compound. Plasmid which conferred resistance to FTY720 are recovered according to standard methods, amplified in E. coli and reintroduced into JK9-3da for the confirmation of FTY720 resistance. The DNA fragments which conferred FTY720 resistance are isolated to determine sequence of both terminii of insert DNA and the DNA sequence is compared with Saccharomyces Genome Database. Then, the responsible single genes for the FTY720 resistance are further identified from the DNA fragments due to their common presence in different fragments and by using specific restriction enzymes to subclone them into yeast plasmid vector as shorter fragments (Genes Vap1, UBP5, UBP11 and Caj1 are identified by this method).
From each fragment or resistance plasmid, single responsible genes, which overcome the anti-fungal effects of this compound at the increased copy number, are identified by subcloning using restriction enzymes. One is amino acid transporter VAP1, the others are a putative deubiquitinating enzyme UBP11 and UBP5. The last one is CAJ1 (heat shock protein).
The glutamine transporter GNP1 gene (38) is PCR amplified out of this fragment derived from the FTY720 resistant mutant or parent wild-type genomic DNA, then cloned into the same plasmid vector pRS416.
JK9-3dα wild-type cells are transformed with the yeast genomic DNA library constructed from FTY720 resistant dominant mutant in the low-copy-number vector pRS416. FTY720-resistant transformants are selected in SD medium in the presence of 30 μM of FTY720 as mentioned above. Plasmid inserts are sequenced and gene is identified as GNP1.

Bul1-disrupted yeast = test: Sensitivity of gene-disrupted yeast strains to FTY720; assay type: cell-based, Saccharomyces Cerevisie
Method: as §1, with “(SD).” for “(SD). The growth of both yeast strains JK9-3dα, MH272-1da and MH272-1da/α is inhibited by a compound of formula I, e.g. FTY720, at 30 μM in the YPED solid medium at 30° C. or in minimal medium at 19° C.”
Only one genomic DNA fragment in pRS416 confers sensitivity to FTY720. This DNA contains 4 intact genes (NRC1, Bul1, RCE1, DSK2). […] Intact Bul1 gene in low-copy-number plasmid confers sensitvity to FTY720 in the resistant recessive mutants, implying that the mutation happens in Bul1 gene in the recessive mutant yeast.

[3] = test system: prototrophic derivatives of JK9-3dα; test: Growth sensitivity of prototrophic derivatives of JK9-3dα to FTY720; assay type: cell-based, Saccharomyces Cerevisie
Method: as §1, with “(SD).” for “(SD). The growth of both yeast strains JK9-3dα, MH272-1da and MH272-1da/α is inhibited by a compound of formula I, e.g. FTY720, at 30 μM in the YPED solid medium at 30° C. or in minimal medium at 19° C.”
If so, yeast that are able to synthesize amino acids might have a growth advantage in the presence of FTY720 compared with isogenic auxotrophic yeast that require amino acid import from the medium to grow. Therefore, the influence of nutrient auxotrophies present in JK9-3dα (trp1 his4 leu2 ura3), which are used to identify target molecules of FTY720, on the sensitivity to this compound is tested. In contrast to the parental auxotrophic strain, fully prototrophic TRP1 HIS4 LEU2 URA3 derivative of JK9-3dα is resistant to 30 μM of FTY720. […] It therefore seems that the molecular targets and pathways other than that of 30 μM are involved in the effects of 100 μM of FTY720. Then, in order to identify which nutrient transport is inhibited by 30 μM of FTY720, prototrophic strain for each nutrient are constructed in JK9-3dα.

yeast cells = conditions: cited from earlier work
several yeast strains = conditions: background statement; cited from earlier work

Compound: NC(CO)(CO)CCc1ccc(C(=O)CCCCc2ccccc2)cc1 [Compound Y, 2-amino-2-{2-[4-(1-oxo-5-phenylpentyl)phenyl]ethyl}propane-1,3-diol]
- antifungal activity on Saccharomyces Cerevisie [1]: exhibits an antifungal activity
- peripheral blood lymphocytes (PBL) in vivo [2]: rapid and marked reduction

Compound: CCCCCCCCc1ccc(CCC(N)(CO)CO)cc1 [FTY720, 2-Amino-2-[2-(4-octylphenyl)ethyl]propane-1,3-diol]
- sensitivity of Rsp5 mutant (Rsp5 expression less than 10% of wild-type) (Rsp5 mutant yeast): resistant
- anti-fungal effect with wild type TAT2 gene in low-copy number-plasmid (JK9-3dα transformants): overcomes the anti-fungal effects
- growth-inhibitory effect with VAP1, UBP11, UBP5 or CAJ1 in high-copy-number plasmid (JK9-3dα transformants; 30 μM, JK9-3dα): overcome the growth-inhibitory effects
- anti-fungal effect with mutant-derived GNP1 in low-copy-number plasmid (JK9-3dα transformants; 30 μM, JK9-3dα transformants, pRS416): confers resistance
- growth inhibition with multiple copies of VAP1 (JK9-3dα transformants; 100 μM): fail to overcome the growth inhibition
- anti-fungal effect with wild-type GNP1 gene in low-copy-number plasmid (JK9-3dα transformants; JK9-3dα transformants, pRS416): not inhibited
- anti-fungal effect with VAP1 (and TAP2) in low-copy-number plasmid (JK9-3dα transformants; genes from mutant-derived and wild-type genomic DNA libraries): confer FTY720 resistance
- growth of yeast strains JK9-3dα, MH272-1da and MH272-1da/α ([1]; 30 μM, YPED solid medium at 30° C. or minimal medium at 19° C.): inhibited
- antifungal activity on Saccharomyces Cerevisie [1]: exhibits an antifungal activity
- sensitivity of parent yeast strain JK9-3dα ([1]; synthetic medium at 30° C.): resistant
- sensitivity of Bul1-disrupted yeast after introduction of Bul1 gene in low-copy-number plasmid pRS416 (Bul1-disrupted yeast): reverses the phenotype from resistance to sensitivity
- sensitivity of Bul1-disrupted yeast (Bul1-disrupted yeast; 30 μM): confers resistance
- peripheral blood lymphocytes (PBL) in vivo [2]: rapid and marked reduction
- sensitivity of fully prototrophic TRP1 HIS4 LEU2 URA3 derivative of JK9-3dα ([3]; 30 μM): resistant
- sensitivity of single TRP1, HIS4, LEU2 or URA3 prototrophic strains ([3]; 30 μM, JK9-3dα background): Neither of each TRP1, HIS4, LEU2 or URA3 prototrophic strain is resistant
- sensitivity of strain with both TRP1 and LEU2 ([3]; 30 μM, JK9-3dα background): sufficient to confer resistance
- sensitivity of prototrophic yeast ([3]; 100 μM): still sensitive

Compound: CCCCCCCCCCCCCC[C@@H](O)[C@@H](O)[C@@H](N)CO [PHS, phytoshingosine]
- tryptophan uptake (yeast cells): diminishes tryptophan uptake

Compound: cyclosporin A [CsA]
- growth of several yeast strains (several yeast strains): potently inhibit

— patent publication US20040214897A1, “Uses for 2-amino-2-propane-1,3-diols” (priority 2001, published 2004)
